Measured values reported in US8361968B2 (Takeda Pharmaceutical Company Limited, priority 2002, dated 2013).
Square brackets hold non-standard residues; d marks the D form. Peptide text beside a SMILES is read from it. * marks the point of attachment. Arg(Me) = CNC(=N)NCCC[C@H](N)C(=O)O; Fmoc = O=C(OCC1c2ccccc2-c2ccccc21)*; azaGly = NNC(=O)O

molecular target: hOT7T175 (Homo sapiens, UniProt Q969F8, L364H); assay: hOT7T175 receptor binding activity: binding inhibition of Cy-5-labeled metastin (40-54) on hOT7T175-expressed CHO cells; parameters: expressed in transfected cells; host or cells: CHO cells
Description: Assay for hOT7T175 Receptor Binding Activity
h0T7T175-Expressed CHO cells were cultured in MEM-cc medium (nucleic acid-free) containing 10% dialyzed serum. The medium was removed and the adherent cells were washed with PBS. Then, PBS containing 5 mM EDTA was added and the cells were scraped from a flask with a cell scraper. […] To each well of a 96-Well Black Clear Bottom Plate (Applied Biosystems, Inc.), 10 μL of assay buffer containing 1% dimethylsulfoxide was added to examine total binding, 10 μL of 10 μM non-labeled peptide (having the same amino acid sequence as that of the labeled one) solution diluted with assay buffer to examine non-specific binding, and 10 μL of a test compound diluted with assay buffer to examine the binding inhibition activity of the test compound, respectively. Furthermore, 90 μL each of the cell suspension was dispensed to each well. […] The specific binding is a value obtained by subtracting the non-specific binding from the total binding.

Chain of hOT7T175 (Q969F8 whole entry L364H): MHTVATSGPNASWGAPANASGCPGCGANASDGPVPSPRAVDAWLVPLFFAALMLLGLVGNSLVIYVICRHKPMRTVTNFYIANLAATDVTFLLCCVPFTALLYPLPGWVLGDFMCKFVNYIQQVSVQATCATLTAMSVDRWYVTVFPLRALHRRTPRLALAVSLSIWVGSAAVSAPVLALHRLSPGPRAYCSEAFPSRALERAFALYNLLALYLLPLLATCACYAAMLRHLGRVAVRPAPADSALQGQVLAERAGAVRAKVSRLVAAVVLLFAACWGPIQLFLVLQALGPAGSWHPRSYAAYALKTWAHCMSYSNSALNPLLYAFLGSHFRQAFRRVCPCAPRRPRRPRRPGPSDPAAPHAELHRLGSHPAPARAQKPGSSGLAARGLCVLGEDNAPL

SMILES | IC50
C/N=C(/NC)NCCC[C@H](NC(=O)[C@H](CC(C)C)NC(=O)CNC(=O)[C@H](Cc1ccccc1)NC(=O)[C@H](CO)NC(=O)[C@H](CC(N)=O)NC(=O)[C@H](Cc1c[nH]c2ccccc12)NC(=O)[C@H](CC(N)=O)NC(=O)[C@@H](N)Cc1ccc(O)cc1)C(=O)N[C@@H](Cc1ccccc1)C(N)=O [Compound No. 129] | 83 nM
CNC(=N)NCCC[C@H](NC(=O)[C@H](CC(C)C)NC(=O)CNC(=O)[C@H](Cc1ccccc1)NC(=O)[C@H](CO)NC(=O)[C@H](CC(N)=O)NC(=O)[C@H](Cc1c[nH]c2ccccc12)NC(=O)OCC1c2ccccc2-c2ccccc21)C(=O)N[C@@H](Cc1ccccc1)C(N)=O [Compound No. 145, Fmoc-Trp-Asn-Ser-Phe-Gly-Leu-Arg(Me)-Phe-NH2] (Fmoc-WNSFGL[Arg(Me)]F-NH2) | 120 nM
CC(C)C[C@H](NC(=O)CNC(=O)[C@H](Cc1ccc(O)cc1)NC(=O)[C@H](CO)NC(=O)[C@H](CC(N)=O)NC(=O)[C@H](Cc1c[nH]c2ccccc12)NC(=O)[C@H](CC(N)=O)NC(=O)[C@@H](N)Cc1ccc(O)cc1)C(=O)N[C@@H](CCCNC(=N)N)C(=O)N[C@@H](Cc1ccccc1)C(N)=O [Compound No. 150] (H-YNWNSYGLRF-NH2) | 320 nM
CNC(N)=NCCC[C@H](NC(=O)[C@H](CC(C)C)NC(=O)NNC(=O)[C@H](Cc1ccccc1)NC(=O)[C@H](CO)NC(=O)[C@H](CC(N)=O)NC(=O)[C@H](CO)NC(=O)[C@H](CC(N)=O)NC(=O)[C@H](N)Cc1ccc(O)cc1)C(=O)N[C@@H](Cc1ccccc1)C(N)=O [Compound No. 191, D-Tyr-Asn-Ser-Asn-Ser-Phe-AzaGly-Leu-Arg(Me)-Phe-NH2] (H-[dY]NSNSF[azaGly]L[Arg(Me)]F-NH2) | 300 nM
CNC(N)=NCCC[C@H](NC(=O)[C@H](CC(C)C)NC(=O)NNC(=O)[C@H](Cc1ccccc1)NC(=O)[C@H](CO)NC(=O)[C@H](CC(N)=O)NC(=O)[C@@H](NC(=O)[C@H](CC(N)=O)NC(=O)[C@H](N)Cc1ccc(O)cc1)[C@@H](C)O)C(=O)N[C@@H](Cc1ccccc1)C(N)=O [Compound No. 221, D-Tyr-Asn-Thr-Asn-Ser-Phe-AzaGly-Leu-Arg(Me)-Phe-NH2] (H-[dY]NTNSF[azaGly]L[Arg(Me)]F-NH2) | 95 nM
CNC(=N)NCCC[C@H](NC(=O)[C@H](CC(C)C)NC(=O)CNC(=O)[C@H](Cc1ccccc1)NC(=O)[C@H](CO)NC(=O)[C@H](CC(N)=O)NC(=O)[C@@H](Cc1c[nH]c2ccccc12)NC(=O)[C@H](N)CC(N)=O)C(=O)N[C@@H](Cc1ccccc1)C(N)=O [Compound No. 225, D-Asn-D-Trp-Asn-Ser-Phe-Gly-Leu-Arg(Me)-Phe-NH2] (H-[dN][dW]NSFGL[Arg(Me)]F-NH2) | 410 nM
CNC(=N)NCCC[C@H](NC(=O)[C@H](CC(C)C)NC(=O)CNC(=O)[C@H](Cc1ccccc1)NC(=O)[C@H](CO)NC(=O)[C@H](CC(N)=O)NC(=O)[C@H](CO)NC(=O)[C@H](N)Cc1ccc(O)cc1)C(=O)N[C@@H](Cc1ccccc1)C(N)=O [Compound No. 226] (H-[dY]SNSFGL[Arg(Me)]F-NH2) | 100 nM
CNC(N)=NCCC[C@H](NC(=O)[C@H](CC(C)C)NC(=O)NNC(=O)[C@H](Cc1ccccc1)NC(=O)[C@H](CO)NC(=O)[C@H](CC(N)=O)NC(=O)[C@H](CO)NC(=O)[C@H](N)Cc1ccc(O)cc1)C(=O)N[C@@H](Cc1ccccc1)C(N)=O [Compound No. 239, D-Tyr-Ser-Asn-Ser-Phe-AzaGly-Leu-Arg(Me)-Phe-NH2] (H-[dY]SNSF[azaGly]L[Arg(Me)]F-NH2) | 120 nM
CC[C@H](C)[C@H](NC(=O)[C@H](N)Cc1ccc(O)cc1)C(=O)N[C@@H](CC(N)=O)C(=O)N[C@@H](CO)C(=O)N[C@@H](Cc1ccccc1)C(=O)NNC(=O)N[C@@H](CC(C)C)C(=O)N[C@@H](CCCNC(=N)NC)C(=O)N[C@@H](Cc1ccccc1)C(N)=O [Compound No. 240, D-Tyr-Ile-Asn-Ser-Phe-AzaGly-Leu-Arg(Me)-Phe-NH2] (H-[dY]INSF[azaGly]L[Arg(Me)]F-NH2) | 17 nM
